Test system: healthy subjects
Assay: Phase 1 study: adverse events (TEAEs, MedDRA coded)
Assay type: in vivo, human
Experimental: A Phase 1 randomized, double-blind, placebo-controlled study to evaluate the effect of psilocybin on cognitive and emotional processing as compared to placebo in healthy volunteers was conducted. The study investigated the short-term (Day 7) and long-term (Day 28) effects of moderate (10 mg) and high doses (25 mg) of psilocybin on key domains of cognition, such as episodic memory, attention, working and spatial memory, social cognition and elements of executive function, including cognitive flexibility.
Each subject was assigned 1 treatment bottle containing 5 capsules packaged in a double-blind fashion, depending on the randomized treatment arm, the bottle contained one of the following: • a. Psilocybin 10 mg: 2×5-mg oral psilocybin capsules plus 3×placebo capsules • b. Psilocybin 25 mg: 5×5-mg oral psilocybin capsules • c. Placebo: 5×placebo capsules
Each 5-mg oral psilocybin capsules comprised 5 mg crystalline psilocybin in the form or Polymorph A, 12.5 mg of SMCC 50, 79.5 mg of SMCC 90, 1 mg sodium starch glycolate, 1 mg colloidal silicon dioxide, and 1 mg sodium stearyl fumarate
Adverse events: Throughout the course of the study, all AEs were monitored and recorded. Each AE was classified according to the following criteria: • i. […] Moderate: The AE produces some impairment of functioning, but is not hazardous to the subject's health. • iii. Severe: The AE produces significant impairment of functioning or incapacitation and is a definite hazard to the subject's health.
Visit 3 (V3): Drug Administration (Day 0): The subject was asked to eat a light breakfast at least two hours prior to coming to the clinic for study drug administration. On Day 0 (V3), the subject underwent the SSTS, had vital signs obtained, medications reviewed, AEs recorded and eligibility reviewed prior to being randomized to study drug. The study drug was administered to up to six subjects simultaneously in individual beds separated by a curtain. The subject was invited to put on eyeshades and headphones, lie down and listen to calming music for the rest of the session (six hours). The subject was supported 1:1 with a chaperone and supervised by the study psychiatrist and lead therapist.
During administration of psilocybin, each subject received one-on-one support from a trained assisting therapist and each dosing session was supervised by a study psychiatrist and a lead therapist. The study drug was administered simultaneously to up to six participants as a single 5-capsule oral dose (10 mg psilocybin: 2×5-mg psilocybin capsules plus 3×placebo capsules; 25 mg psilocybin: 5×5-mg psilocybin capsules; placebo: 5×placebo capsules). Twenty-five dosing sessions were completed, with up to six participants dosed simultaneously per session. Each session lasted approximately 6 to 8 hours with subjects encouraged to relax and engage in introspection for the duration. After the acute effects of the study drug had subsided, subjects were discharged.

CN(C)CCc1c[nH]c2cccc(OP(=O)(O)O)c12 [Psilocybin, psilocybin]
Illusion, Events (25 mg oral): 26
Illusion, N (%) (25 mg oral): 18 (60.0)
Illusion, worst severity Mild, Events (25 mg oral): 4
Illusion, worst severity Mild, N (%) (25 mg oral): 3 (10.0)
Illusion, worst severity Moderate, Events (25 mg oral): 12
Illusion, worst severity Moderate, N (%) (25 mg oral): 10 (33.3)
Illusion, worst severity Severe, Events (25 mg oral): 7
Illusion, worst severity Severe, N (%) (25 mg oral): 5 (16.7)
Infections and infestations, Events (25 mg oral): 4
Infections and infestations, N (%) (25 mg oral): 4 (13.3)
Infections and infestations, worst severity Mild, Events (25 mg oral): 4
Infections and infestations, worst severity Mild, N (%) (25 mg oral): 4 (13.3)
Infections and infestations, worst severity Moderate, Events (25 mg oral): 0
Infections and infestations, worst severity Moderate, N (%) (25 mg oral): 0
Infections and infestations, worst severity Severe, Events (25 mg oral): 0
Infections and infestations, worst severity Severe, N (%) (25 mg oral): 0
Investigations, Events (25 mg oral): 1
Investigations, N (%) (25 mg oral): 1 (3.3)
Investigations, worst severity Mild, Events (25 mg oral): 1
Investigations, worst severity Mild, N (%) (25 mg oral): 1 (3.3)
Investigations, worst severity Moderate, Events (25 mg oral): 0
Investigations, worst severity Moderate, N (%) (25 mg oral): 0
Investigations, worst severity Severe, Events (25 mg oral): 0
Investigations, worst severity Severe, N (%) (25 mg oral): 0
Memory impairment, Events (25 mg oral): 0
Memory impairment, N (%) (25 mg oral): 0
Mental fatigue, Events (25 mg oral): 3
Mental fatigue, N (%) (25 mg oral): 3 (10.0)
Mood altered, Events (25 mg oral): 25
Mood altered, N (%) (25 mg oral): 15 (50.0)
Mood altered, worst severity Mild, Events (25 mg oral): 3
Mood altered, worst severity Mild, N (%) (25 mg oral): 2 (6.7)
Mood altered, worst severity Moderate, Events (25 mg oral): 7
Mood altered, worst severity Moderate, N (%) (25 mg oral): 6 (20.0)
Mood altered, worst severity Severe, Events (25 mg oral): 9
Mood altered, worst severity Severe, N (%) (25 mg oral): 7 (23.3)
Musculoskeletal and connective tissue disorders, Events (25 mg oral): 4
Musculoskeletal and connective tissue disorders, N (%) (25 mg oral): 3 (10.0)
Musculoskeletal and connective tissue disorders, worst severity Mild, Events (25 mg oral): 3
Musculoskeletal and connective tissue disorders, worst severity Mild, N (%) (25 mg oral): 2 (6.7)
Musculoskeletal and connective tissue disorders, worst severity Moderate, Events (25 mg oral): 1
Musculoskeletal and connective tissue disorders, worst severity Moderate, N (%) (25 mg oral): 1 (3.3)
Musculoskeletal and connective tissue disorders, worst severity Severe, Events (25 mg oral): 0
Musculoskeletal and connective tissue disorders, worst severity Severe, N (%) (25 mg oral): 0
Nausea, Events (25 mg oral): 3
Nausea, N (%) (25 mg oral): 3 (10.0)
Nervous system disorders, Events (25 mg oral): 43
Nervous system disorders, N (%) (25 mg oral): 25 (83.3)
Nervous system disorders, worst severity Mild, Events (25 mg oral): 24
Nervous system disorders, worst severity Mild, N (%) (25 mg oral): 16 (53.3)
Nervous system disorders, worst severity Moderate, Events (25 mg oral): 10
Nervous system disorders, worst severity Moderate, N (%) (25 mg oral): 8 (26.7)
Nervous system disorders, worst severity Severe, Events (25 mg oral): 1
Nervous system disorders, worst severity Severe, N (%) (25 mg oral): 1 (3.3)
Paraesthesia, Events (25 mg oral): 4
Paraesthesia, N (%) (25 mg oral): 4 (13.3)
Paraesthesia, worst severity Mild, Events (25 mg oral): 3
Paraesthesia, worst severity Mild, N (%) (25 mg oral): 3 (10.0)
Paraesthesia, worst severity Moderate, Events (25 mg oral): 1
Paraesthesia, worst severity Moderate, N (%) (25 mg oral): 1 (3.3)
Paraesthesia, worst severity Severe, Events (25 mg oral): 0
Paraesthesia, worst severity Severe, N (%) (25 mg oral): 0
Psychiatric disorders, Events (25 mg oral): 135
Psychiatric disorders, N (%) (25 mg oral): 29 (96.7)
Psychiatric disorders, worst severity Mild, Events (25 mg oral): 5
Psychiatric disorders, worst severity Mild, N (%) (25 mg oral): 4 (13.3)
Psychiatric disorders, worst severity Moderate, Events (25 mg oral): 45
Psychiatric disorders, worst severity Moderate, N (%) (25 mg oral): 16 (53.3)
Psychiatric disorders, worst severity Severe, Events (25 mg oral): 27
Psychiatric disorders, worst severity Severe, N (%) (25 mg oral): 9 (30.0)
Psychomotor skills impaired, Events (25 mg oral): 0
Psychomotor skills impaired, N (%) (25 mg oral): 0
Respiratory, thoracic and mediastinal disorders, Events (25 mg oral): 3
Respiratory, thoracic and mediastinal disorders, N (%) (25 mg oral): 3 (10.0)
Selected TEAE: Nervous system disorders, Events (25 mg oral): 0
Selected TEAE: Nervous system disorders, N (%) (25 mg oral): 0
Selected TEAE: Psychiatric disorders, Events (25 mg oral): 106
Selected TEAE: Psychiatric disorders, N (%) (25 mg oral): 27 (90.0)
Somatic hallucination, Events (25 mg oral): 6
Somatic hallucination, N (%) (25 mg oral): 5 (16.7)
Somatic hallucination, worst severity Mild, Events (25 mg oral): 2
Somatic hallucination, worst severity Mild, N (%) (25 mg oral): 2 (6.7)
Somatic hallucination, worst severity Moderate, Events (25 mg oral): 2
Somatic hallucination, worst severity Moderate, N (%) (25 mg oral): 2 (6.7)
Somatic hallucination, worst severity Severe, Events (25 mg oral): 2
Somatic hallucination, worst severity Severe, N (%) (25 mg oral): 1 (3.3)
Substance-induced psychotic disorder, Events (25 mg oral): 1
Substance-induced psychotic disorder, N (%) (25 mg oral): 1 (3.3)
Tension headache, Events (25 mg oral): 6
Tension headache, N (%) (25 mg oral): 6 (20.0)
Tension headache, worst severity Mild, Events (25 mg oral): 4
Tension headache, worst severity Mild, N (%) (25 mg oral): 4 (13.3)
Tension headache, worst severity Moderate, Events (25 mg oral): 2
Tension headache, worst severity Moderate, N (%) (25 mg oral): 2 (6.7)
Tension headache, worst severity Severe, Events (25 mg oral): 0
Tension headache, worst severity Severe, N (%) (25 mg oral): 0
Time perception altered, Events (25 mg oral): 6
Time perception altered, N (%) (25 mg oral): 6 (20.0)
Time perception altered, worst severity Mild, Events (25 mg oral): 2
Time perception altered, worst severity Mild, N (%) (25 mg oral): 2 (6.7)
Time perception altered, worst severity Moderate, Events (25 mg oral): 4
Time perception altered, worst severity Moderate, N (%) (25 mg oral): 4 (13.3)
Time perception altered, worst severity Severe, Events (25 mg oral): 0
Time perception altered, worst severity Severe, N (%) (25 mg oral): 0
Adverse events reported by % of subjects (25 mg oral, 12-week study): 96.7%
Reported 'Mood altered' events: Being less judgmental (number) (25 mg psilocybin (n = 30)): 0
Reported 'Mood altered' events: Calm (number) (25 mg psilocybin (n = 30)): 0
Reported 'Mood altered' events: Clarity of thought (number) (25 mg psilocybin (n = 30)): 1
Reported 'Mood altered' events: Contemplative state (number) (25 mg psilocybin (n = 30)): 1
Reported 'Mood altered' events: Feeling more moody/sensitive (number) (25 mg psilocybin (n = 30)): 0
Reported 'Mood altered' events: Feeling of adrenaline release (number) (25 mg psilocybin (n = 30)): 0
Reported 'Mood altered' events: Feeling rested (number) (25 mg psilocybin (n = 30)): 0
Reported 'Mood altered' events: Increased compassion (number) (25 mg psilocybin (n = 30)): 1
Reported 'Mood altered' events: Increased creativity (number) (25 mg psilocybin (n = 30)): 1
Reported 'Mood altered' events: Increased empathy (number) (25 mg psilocybin (n = 30)): 2
Reported 'Mood altered' events: Increased sense of connectedness (number) (25 mg psilocybin (n = 30)): 1
Reported 'Mood altered' events: Increased wit (number) (25 mg psilocybin (n = 30)): 0
Reported 'Mood altered' events: Introspection (number) (25 mg psilocybin (n = 30)): 8
Reported 'Mood altered' events: Laughter (number) (25 mg psilocybin (n = 30)): 1
Reported 'Mood altered' events: More socially upbeat (number) (25 mg psilocybin (n = 30)): 1
Reported 'Mood altered' events: Negative mood (number) (25 mg psilocybin (n = 30)): 0
Reported 'Mood altered' events: Reflections (number) (25 mg psilocybin (n = 30)): 4
Reported 'Mood altered' events: Saw themselves from a new perspective (number) (25 mg psilocybin (n = 30)): 1
Reported 'Mood altered' events: Sense of oneness (number) (25 mg psilocybin (n = 30)): 2
Reported 'Mood altered' events: Sense of openness (number) (25 mg psilocybin (n = 30)): 0
Reported 'Mood altered' events: Unusual appreciation of music (number) (25 mg psilocybin (n = 30)): 0
Adverse events that appeared and resolved on day 0 (day of dosing) (all adverse events, all arms): 67%
'mood altered' AEs positive or neutral in nature (all arms): 96%
Median duration of adverse events (all treatment arms, 12-week trial): one
Incidence of Illusion, Hallucination (visual), Mood altered, Headache, Fatigue and Euphoric mood compared to placebo (both 10 and 25 mg): higher
Adverse events likely to be psychedelic in nature resolved on the day of onset or within a day of onset (human, in vivo, oral, 12 weeks): 92%
